Results reported in ChEMBL document CHEMBL1157124, “Synthesis and anticancer evaluation of alpha-lipoic acid derivatives” (Bioorg Med Chem Lett, 2010).

Assays:
Type in all cases: functional
NCI-H460 [1] = test: Cytotoxicity against human NCI-H460 cells assessed as growth inhibition at 0.1 ug/ml after 24 hrs by MTT assay; conditions: NCI-H460, 24 h, read-out: GI
KB [2] = test: Cytotoxicity against human KB cells assessed as growth inhibition at 100 ug/ml after 24 hrs by MTT assay; conditions: read-out: GI
Bel-7402 [3] = test: Cytotoxicity against human Bel7402 cells assessed as growth inhibition at 1 ug/ml after 24 hrs by MTT assay; conditions: Bel-7402, 24 h, read-out: GI
NCI-H460 [4] = test: Cytotoxicity against human NCI-H460 cells assessed as growth inhibition at 100 ug/ml after 24 hrs by MTT assay; conditions: NCI-H460, 24 h, read-out: GI
NCI-H460 [5] = test: Cytotoxicity against human NCI-H460 cells assessed as growth inhibition at 1 ug/ml after 24 hrs by MTT assay; conditions: NCI-H460, 24 h, read-out: GI
Bel-7402 [6] = test: Cytotoxicity against human Bel7402 cells assessed as growth inhibition at 10 ug/ml after 24 hrs by MTT assay; conditions: Bel-7402, 24 h, read-out: GI
[7] = Cytotoxicity against human HO8910 cells assessed as growth inhibition at 10 ug/ml after 24 hrs by MTT assay; conditions: HO-8910, 24 h, read-out: GI
KB [8] = test: Cytotoxicity against human KB cells assessed as growth inhibition at 10 ug/ml after 24 hrs by MTT assay; conditions: read-out: GI
[9] = Cytotoxicity against human HO8910 cells assessed as growth inhibition at 1 ug/ml after 24 hrs by MTT assay; conditions: HO-8910, 24 h, read-out: GI
Bel-7402 [10] = test: Cytotoxicity against human Bel7402 cells assessed as growth inhibition at 100 ug/ml after 24 hrs by MTT assay; conditions: Bel-7402, 24 h, read-out: GI
[11] = Cytotoxicity against human HO8910 cells assessed as growth inhibition at 100 ug/ml after 24 hrs by MTT assay; conditions: HO-8910, 24 h, read-out: GI
Bel-7402 [12] = test: Cytotoxicity against human Bel7402 cells assessed as growth inhibition at 0.1 ug/ml after 24 hrs by MTT assay; conditions: Bel-7402, 24 h, read-out: GI
NCI-H460 [13] = test: Cytotoxicity against human NCI-H460 cells assessed as growth inhibition at 10 ug/ml after 24 hrs by MTT assay; conditions: NCI-H460, 24 h, read-out: GI
KB [14] = test: Cytotoxicity against human KB cells assessed as growth inhibition at 1 ug/ml after 24 hrs by MTT assay; conditions: read-out: GI
[15] = Cytotoxicity against human HO8910 cells assessed as growth inhibition at 0.1 ug/ml after 24 hrs by MTT assay; conditions: HO-8910, 24 h, read-out: GI
KB [16] = test: Cytotoxicity against human KB cells assessed as growth inhibition at 0.1 ug/ml after 24 hrs by MTT assay; conditions: read-out: GI

Structure (SMILES)	inhibition of growth at 0.1 µg/mL (NCI-H460 [1])	inhibition of growth at 100 µg/mL (KB [2])	inhibition of growth at 1 µg/mL (Bel-7402 [3])	inhibition of growth at 100 µg/mL (NCI-H460 [4])	inhibition of growth at 1 µg/mL (NCI-H460 [5])	inhibition of growth at 10 µg/mL (Bel-7402 [6])	inhibition of growth at 10 µg/mL [7]	inhibition of growth at 10 µg/mL (KB [8])	inhibition of growth at 1 µg/mL [9]	inhibition of growth at 100 µg/mL (Bel-7402 [10])	inhibition of growth at 100 µg/mL [11]	inhibition of growth at 0.1 µg/mL (Bel-7402 [12])	inhibition of growth at 10 µg/mL (NCI-H460 [13])	inhibition of growth at 1 µg/mL (KB [14])	inhibition of growth at 0.1 µg/mL [15]	inhibition of growth at 0.1 µg/mL (KB [16])
O=C(CCCCC(S)CCS)Nc1ccc([N+](=O)[O-])cc1 (stereo not drawn)	5.69%	41.1%	1.73%	39.1%	4.64%	14.4%	8.96%	13.7%	0.76%	33.4%	51.2%	1.88%	13.4%	0.93%		
COc1ccc(NC(=O)CCCCC2CCSS2)cc1 (stereo not drawn)	3.82%	48.3%	7.93%	45.7%	0.51%	6.32%	6.34%	2.94%	3.54%	38.7%	43.8%	5.48%	9.82%	5.03%	1.64%	4%
O=C(CCCCC(S)CCS)Nc1ccccc1 (stereo not drawn)	5.5%	15.8%	1.32%	25.4%	4.3%	3.72%	5.49%	8.62%	6.38%	7.67%	13.7%	0.85%	8.37%	11.6%	7.37%	9.49%
O=C(CCCCC(S)CCS)NO (stereo not drawn)	5.7%	58%	9.12%	43.7%	1.17%	28.2%	26.2%	41.5%		47.5%	49.3%	5.96%	17.7%	10.6%		7.62%
O=C(CCCCC(S)CCS)Nc1cccc(C(F)(F)F)c1 (stereo not drawn)	11.9%	30.5%	1.66%	32.1%	8.26%	1.21%	8.86%	1.97%	13.7%	25.3%	34.8%	2.85%	11.4%		10.8%	8.41%
CC(=O)SCCC(CCCCC(=O)Nc1ccccc1)SC(C)=O (stereo not drawn)	15.4%	22.9%	2.84%	44.8%	13.1%		3.2%	2.5%	10.6%	14.1%	22.3%		14.2%	1.68%	8.33%	7.24%
CC(=O)SCCC(CCCCC(=O)O)SC(C)=O (stereo not drawn)	9.96%	8.03%	12.8%	11%	9.89%	9.22%	1.61%	8.88%		8.35%		10.3%	6.04%	12.4%		7.24%
O=C(CCCCC(S)CCS)Nc1ccc(F)cc1 (stereo not drawn)	5.64%	28.2%		41.6%	6.84%	6.14%	6.81%	13.3%	12.2%	11.7%	22.2%		18.1%	8.84%	8.11%	6.78%
CC(=O)SCCC(CCCCC(=O)Nc1ccc(Cl)cc1)SC(C)=O (stereo not drawn)	9.89%	72%	3.07%	47.3%	15.4%	5.78%	1.47%	18.1%	0.35%	45.5%	58.8%	9.96%	14.8%	14.8%	1.81%	11.4%
O=C(CCCCC1CCSS1)Nc1ccccc1Cl (stereo not drawn)	8%	0.72%	5.33%	3.38%	10.1%		4.66%		7.74%	4.74%		6.83%	14.6%		8.17%	5.11%
COc1ccc(NC(=O)CCCCC(S)CCS)cc1 (stereo not drawn)	5.69%	22.2%	3.96%	23.5%		10.4%	4.14%	8.93%	1.79%	22.5%	12.6%	5.35%	1.43%	2.49%		
O=C(CCCCC(CCSC(=O)c1ccccc1)SC(=O)c1ccccc1)Nc1ccccc1Cl (stereo not drawn)	15.1%		7.37%		14.4%	6.63%	1.33%	2.53%	2.35%			5.72%	12.1%	3.05%		3.62%
